Columns and labels:
[1] = Water solubility in aqueous buffer; details: aqueous buffer 10 mM Tris-HCl, pH 7.4, 20° C.
Description: The solid compounds were added stepwise to the buffer solution. More substance is added once all the suspended material is dissolved until an equilibrium between undissolved and dissolved substance is reached. The suspension was mixed using a shaker (Heidolph Reax 2000) and treated 5 min in an ultrasound bath (Bandelin, Sonorex Super RK255H).

[2] = Relaxivity measurements at 1.41 T in water; type: physicochemical; details: 37° C., normalized to Gd
In short: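 T1 by inversion recovery and T2 by CPMG at 1.41 T (60 MHz), 37° C, relaxation delay ≥5×T1. Three Gd concentrations between 0.05 and 2 mM; relaxivities derived from measured relaxation rates in water.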

[3] = Relaxivity measurements at 1.41 T in human plasma; type: physicochemical; details: 37° C., normalized to Gd
In short: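 T1 determined by inversion recovery (8 inversion-time steps) and T2 by CPMG sequence, both with relaxation delay ≥5×T1. Each relaxivity used three Gd concentrations between 0.05 and 2 mM. Relaxivities were derived from relaxation rates measured in water and plasma.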

OATP1B1 = biological target: T1, OATP1B1 (Homo sapiens, UniProt Q9Y6L6); test: Uptake into stable transfected OATP1B1 HEK 293 cells; type: cell-based; details: for Uptake into OATP1B1-HEK 293 cells: 40 min incubation, relative to RC1 (Gd-EOB-DTPA); for Inhibition Rifampicine: uptake into OATP1B1-HEK 293 cells
T1 sequence (Q9Y6L6 1-691): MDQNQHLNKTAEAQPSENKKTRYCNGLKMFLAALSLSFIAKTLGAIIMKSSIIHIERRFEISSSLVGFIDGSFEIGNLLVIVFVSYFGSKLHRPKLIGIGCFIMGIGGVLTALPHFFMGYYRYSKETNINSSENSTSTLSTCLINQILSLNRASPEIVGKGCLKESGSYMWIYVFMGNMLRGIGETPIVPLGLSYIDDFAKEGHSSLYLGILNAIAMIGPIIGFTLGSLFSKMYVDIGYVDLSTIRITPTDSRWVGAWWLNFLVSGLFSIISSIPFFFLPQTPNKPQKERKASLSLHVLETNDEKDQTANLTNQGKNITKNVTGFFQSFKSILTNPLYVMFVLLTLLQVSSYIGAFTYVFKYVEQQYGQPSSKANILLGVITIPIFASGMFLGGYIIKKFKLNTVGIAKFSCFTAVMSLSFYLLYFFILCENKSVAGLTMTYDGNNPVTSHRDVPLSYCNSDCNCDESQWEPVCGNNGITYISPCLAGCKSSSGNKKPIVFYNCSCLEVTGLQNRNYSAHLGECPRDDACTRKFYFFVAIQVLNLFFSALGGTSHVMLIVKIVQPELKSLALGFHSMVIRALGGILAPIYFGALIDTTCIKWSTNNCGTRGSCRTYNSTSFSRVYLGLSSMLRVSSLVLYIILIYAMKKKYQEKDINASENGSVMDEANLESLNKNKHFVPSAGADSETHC
In short: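 Stably transfected OATP1B1 HEK293 cells incubated 40 min without shaking with test item at 100 µM final in transport buffer, in triplicate. Cells then washed with cold PBS; gadoxetate run on the same plate as reference.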

OATP1B3 = biological target: T2, OATP1B3 (Homo sapiens, UniProt Q9NPD5); test: Uptake into stable transfected OATP1B3 HEK 293 cells; type: cell-based; details: for Uptake into OATP1B3-HEK 293 cells: 40 min incubation, relative to RC1 (Gd-EOB-DTPA); for Inhibition Rifampicine: uptake into OATP1B3-HEK 293 cells
T2 sequence (Q9NPD5 1-702): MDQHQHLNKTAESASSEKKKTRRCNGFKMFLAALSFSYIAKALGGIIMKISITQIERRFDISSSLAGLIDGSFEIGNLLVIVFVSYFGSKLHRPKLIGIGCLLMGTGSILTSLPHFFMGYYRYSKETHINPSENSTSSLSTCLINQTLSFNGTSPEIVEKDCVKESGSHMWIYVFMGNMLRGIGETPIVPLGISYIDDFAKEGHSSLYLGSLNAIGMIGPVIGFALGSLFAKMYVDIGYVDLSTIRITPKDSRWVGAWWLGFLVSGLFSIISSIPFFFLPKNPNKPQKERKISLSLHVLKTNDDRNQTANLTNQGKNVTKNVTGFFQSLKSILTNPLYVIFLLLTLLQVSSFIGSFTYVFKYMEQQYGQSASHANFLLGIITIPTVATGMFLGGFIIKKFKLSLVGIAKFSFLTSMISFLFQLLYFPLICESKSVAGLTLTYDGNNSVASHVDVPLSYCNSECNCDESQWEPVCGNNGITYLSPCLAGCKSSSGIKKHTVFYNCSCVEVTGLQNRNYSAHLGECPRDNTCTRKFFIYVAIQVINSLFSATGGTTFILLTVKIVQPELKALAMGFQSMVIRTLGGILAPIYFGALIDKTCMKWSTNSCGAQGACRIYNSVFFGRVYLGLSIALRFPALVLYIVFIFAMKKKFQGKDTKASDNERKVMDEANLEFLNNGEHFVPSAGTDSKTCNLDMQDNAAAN
In short: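 HEK 293 cells stably transfected with human OATP1B3 were incubated for 40 min with test items at 100 μM final in transport buffer, in triplicate, then washed with cold PBS. Gadoxetate (Gd-EOB-DTPA) served as the reference standard on the same plate.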

[4] = Partition coefficient (log P butanol/buffer); type: physicochemical; details: 1-butanol / 50 mM Tris-HCl, pH 7.4, room temperature
[5] = tested on: freshly isolated rat hepatocytes; test: Uptake into freshly isolated rat hepatocytes; details: for Uptake rat hepatocytes: 100 μmol Gd/L, 10 min, 37° C., relative to RC1 (Gd-EOB-DTPA); for Inhibition Rifampicine: rat hepatocyte uptake, test item and Rifampicine 1:1, each 100 μM
Description: After incubation the adherent hepatocytes were washed once with 37° C. Hepes carbonate transport buffer (500 μL/well). The test items and RC1 were prepared from stock solutions (180 to 500 mM concentration) in Hepes carbonate transport buffer at pH 7.4 to reach a final concentration of 100 μmol Gd/L. The specific uptake of the test item or RC1 into rat hepatocytes via OATP1B1 and OATP1B3 was challenged using a known OATP1B1/1B3 inhibitor (Rifampicine, Fa. Sigma R3501, test item and inhibitor 1:1 each 100 μM final concentration). The prepared rat hepatocyte plates were incubated with test solutions (500 μL/well) at 37° C. for 10 min using a thermoshaker (Fa. Grant Bio, PHMP). Triplicates were performed for each test item. After incubating the cells were washed once with cold PBS buffer (Fa. Gibco, Dulbeccos PBS (+)). After washing the intact hepatocytes were lysed by addition of 500 μL cold 0.01% Triton-X 100 in Millipore water for 1 h. […] As a reference standard RC1 is used in the same well plate. The hepatocyte uptake of the test compound is calculated relative to RC1 (resulting in the unit % of RC1).

Row | Compound | Solubility [1] [mM] | r1 water [2] [L/mmol/s] | r1 human plasma [3] [L/mmol/s] | Uptake into OATP1B1-HEK 293 cells (OATP1B1) | Inhibition Rifampicine (OATP1B1) [% inhibition] | Uptake into OATP1B3-HEK 293 cells (OATP1B3) | Inhibition Rifampicine (OATP1B3) [% inhibition] | Log P (partition coefficient butanol/buffer) [4] | Uptake rat hepatocytes [5] | Inhibition Rifampicine [5] [% inhibition]
1 | CCOCCOc1ccc(CC(C(=O)O)N2CCN(CC(=O)[O-])CCN(CC(=O)[O-])CCN(CC(=O)[O-])CC2)cc1.[Gd+3] (centres unmarked) [Example 32, gadolinium 2,2′,2″-(10-{1-carboxy-2-[4-(2-ethoxyethoxy)phenyl]ethyl}-1,4,7,10-tetraazacyclododecane-1,4,7-triyl)triacetate] | >198 | 4.1 | 6.6 | 147 % of RC1 | 72 | 22 % of RC1 | 94 | −1.53 | 54 % of RC1 | 93
2 | CCOCCOCCOc1cc(CC(C(=O)O)N2CCN(CC(=O)[O-])CCN(CC(=O)[O-])CCN(CC(=O)[O-])CC2)cc(OCCOCCOCC)c1.[Gd+3] (centres unmarked) [Example 39, gadolinium 2,2′,2″-{10-[2-{3,5-bis[2-(2-ethoxyethoxy)ethoxy]phenyl}-1-carboxyethyl]-1,4,7,10-tetraazacyclododecane-1,4,7-triyl}triacetate] | >255 | 4.8 | 7.8 | 59 % of RC1 | 12 | 26 % of RC1 | 88 | −1.32 | 17 % of RC1 | 64
3 | CCOCCOCCOc1ccc(CC(C(=O)O)N2CCN(CC(=O)[O-])CCN(C(CO)C(=O)[O-])CCN(CC(=O)[O-])CC2)cc1.[Gd+3] (centres unmarked) [Example 41, gadolinium-2-{7-[1-carboxy-2-{4-[2-(2-ethoxyethoxy)ethoxy]phenyl}ethyl]-4,10-bis(carboxylatomethyl)-1,4,7,10-tetraazacyclododecan-1-yl}-3-hydroxypropanoate] | >13 | 4.5 | 5.7 | 218 % of RC1 | 30 | 47 % of RC1 | 74 | −1.61 | 52 % of RC1 | 56
4 | CCOCCOCCOCCOc1ccc(CC(C(=O)O)N2CCN(CC(=O)[O-])CCN(C(CO)C(=O)[O-])CCN(CC(=O)[O-])CC2)cc1.[Gd+3] (centres unmarked) [Example 42, gadolinium-2-{7-[1-carboxy-2-(4-{2-[2-(2-ethoxyethoxy)ethoxy]ethoxy}phenyl)ethyl]-4,10-bis(carboxylatomethyl)-1,4,7,10-tetraazacyclododecan-1-yl}-3-hydroxypropanoate] | >81 | 5.0 | 7.2 | 89 % of RC1 | 62 | 20 % of RC1 | 91 | −1.60 | 44 % of RC1 | 95
5 | O=C([O-])CN1CCN(CC(=O)[O-])CCN([C@H](Cc2ccc(OCC(F)(F)F)cc2)C(=O)O)CCN(CC(=O)[O-])CC1.[Gd+3] [Example 47, gadolinium 2,2′,2″-(10-{(1R)-1-carboxy-2-[4-(2,2,2-trifluoroethoxy)phenyl]ethyl}-1,4,7,10-tetraazacyclododecane-1,4,7-triyl)triacetate] | >229 | 3.7 | 7.8 | 13 % of RC1 | 93 | 19 % of RC1 | 90 | −0.77 | 55 % of RC1 | 82

Reference: US20260083864A1, “CONTRAST AGENTS FOR USE IN DIAGNOSTIC COMPUTED TOMOGRAPHY IMAGING” (Bayer Aktiengesellschaft, priority 2022, published 2026)
